row,SMILES,melting point [°C]
1,Cc1cccc(-c2cccc(CBr)n2)n1,88
2,Nn1c(C2CC2)n[nH]c1=O,183
3,CN(C)C(N)=Nc1cc(C(F)(F)F)ccc1N1CCOCC1,132 to 135
4,Cc1c2c(c(C)n1CCCN(C)C)C(C)(C#N)CC2(C)C (configuration not stated),90.5 to 91
5,CCC(=O)c1ccc(CN2C(=O)c3ccccc3C2=O)s1,104 to 106
6,O=C(CC(=O)C1CC1)Nc1ccc(C(F)(F)F)cc1,131 to 132
7,COC(=O)c1cc(I)cc2c1Nc1ccccc1C2,148 to 150
8,CCOC(=O)C1=C(C)Nc2nccn2C1C (configuration not stated),185 to 186
9,CCC1c2cc(F)ccc2-c2cc(-c3ccccc3)ccc2N1S(=O)(=O)c1ccc(O)cc1 (configuration not stated),207
10,O=C1c2cc(OCc3ccc4ccccc4n3)ccc2OCC1OCc1ccccc1 (configuration not stated),113 to 115
11,CC1(c2cccc(C3(O)CCCCC3)c2)OCCO1,55 to 57
12,O=c1c2ccc(Cl)cc2[nH]c2c(O)nn(-c3ccc(O)cc3)c(=O)c12,316 to 318
13,COc1cc2cc(CO)c(CO)c(-c3ccnc(Nc4ccccc4C(CO)CCO)c3)c2cc1OC (configuration not stated),204 to 207
14,CN(c1cccc2cc(-c3ncc(CCC(=O)NN)s3)[nH]c12)S(=O)(=O)c1cccs1,224 to 226
15,Clc1ccc2[nH]c(=Nc3ccccc3)n3nc(-c4ccco4)nc3c2c1,231 to 233
16,CC(OCc1cc2cc(C(F)(F)F)ccc2n1S(=O)(=O)c1ccc2c(c1)OCCN2C)C(=O)O (configuration not stated),118 to 120
17,BrCCCCCCCCCCCCN1CCN(c2ccccc2)CC1,26 to 28
18,COC(=O)COc1ccc(OCCC2CCN(c3ccncc3)CC2)cc1,86 to 88
19,CCCCCCCCOc1ccc(C2CN=C(c3c(F)cccc3Cl)S2)cc1 (configuration not stated),41 to 41.5
20,Cc1ccc(-c2cc(NCc3cccc(CNc4cc(-c5ccc(C)cc5)[nH]n4)n3)n[nH]2)cc1,154
21,Cc1nc(N(C)C)ncc1OCc1ccccc1,73 to 74
22,N#Cc1nn(-c2c(Cl)cc(C(F)(F)F)cc2Cl)c(N)c1-c1ccoc1,180 to 181
23,CCOC(=O)C1CN(CC)c2nc(OC)ncc2C1=O (configuration not stated),118
24,CCOC(=O)Cc1c(Cl)cnc2c(NC(=O)c3c(Cl)cccc3Cl)cccc12,161
25,O=C(NCCC12CC3CC(CC(C3)C1)C2)c1cc(-c2cccnc2C(=O)O)ccc1Cl,108 to 111
26,CCCCCCCCCCCCCCCCCC(=O)Nc1ccc(NC(=O)NS(=O)(=O)c2ccc3ccccc3c2)cc1,192

row,SMILES,melting point [°C]
1,Nc1ccc(F)c(CO)c1,80 to 84
2,Cc1ccc(S(=O)(=O)n2c(CCCC(=O)O)cc3nc(Cl)ccc32)c2ccccc12,199 to 204
3,CS(=O)(=O)Nc1ccnn1-c1ncc(Cl)cc1Cl,52 to 54
4,CCOC(=O)c1cn(-c2ccc(F)cc2F)c2nc(OS(=O)(=O)c3ccccc3[N+](=O)[O-])c(F)cc2c1=O,157 to 160
5,CCOC(=O)/C=C/c1c(-c2ccccc2)c2cc(C)c(C)cc2c(=O)n1C,143 to 145
6,COc1ccc(C(=O)NC2N=C(c3ccccc3F)c3ccccc3NC2=O)cc1 (racemic),231 to 233
7,Cc1ccc2c(c1)C(C(=O)Nc1ccccc1)c1ccccc1CO2 (configuration not stated),129 to 130
8,CC(=O)N1c2ccccc2CC1c1cc(Cl)ccc1NC(=O)C(C)(C)C (configuration not stated),131 to 134
9,CCCN(CCC)C1Cc2cccc3nc(N)n(c23)C1 (configuration not stated),160 to 170
10,CC(=O)NC(=O)CCCCBr,88 to 90
11,CC(C)OCc1nc(C(C)(C)O)c(C(=O)OC(C)C)[nH]1,154 to 155
12,COc1ccccc1-c1cccc(-n2cnc3cc(C4=NCCN4)ccc32)c1,221 to 224
13,N#Cc1cnn2c(-c3cccc(C(F)(F)F)c3)ccnc12,141 to 142
14,CC(=O)NCc1ccc(CN2CCN(c3nc(C)cc(C)n3)CC2)cc1,127 to 128
15,Cc1cc(=O)oc2nn(Cc3ccc(Cl)cc3)c(C)c12,149 to 152
16,CCCCNc1nc(-c2ccc(F)cc2)c(-c2ccc(S(C)(=O)=O)cc2)s1,134 to 135
17,CN1CCN(c2ncccc2OC2CCN(c3ccc(Br)cc3)C2=O)CC1 (configuration not stated),72 to 82
18,Nc1nc2c(c(=O)[nH]1)CCc1ccccc1-2,> 300
19,O=C1c2c(-c3ccccc3F)noc2CCC1CCCN1CCN(c2ncccn2)CC1 (configuration not stated),115 to 117
20,CC(=O)N1CCC(CCCC(=O)c2ccc3c(c2)CCNCC3)CC1,90 to 91
21,CCCCC(=O)Nc1c(C)c(C)c2c(c1C)C(c1ccc(C)cc1)C(C)(C)O2 (configuration not stated),156 to 157
22,Nc1ccc(-c2ccncc2)cc1[N+](=O)[O-],234 to 238
23,O=S(=O)(CCN1CCOCC1)Nc1cc(C(c2cc(F)ccc2F)S(=O)(=O)c2ccc(Cl)cc2)c(Cl)cn1 (configuration not stated),219 to 221
24,CCOC(=O)Cc1c(C)nc(Nc2nc3cc(C)c(C)cc3[nH]2)nc1O,> 300
25,CC1(C)C(=NOCc2ccccc2)C(c2ccccc2)=C1c1ccc(S(C)(=O)=O)cc1,119 to 121
26,COc1cccc(-c2ccc(NC(=O)OC(C)(C)C)c([N+](=O)[O-])c2)c1,104 to 107

row,SMILES,melting point [°C]
1,CCCc1c(OCCc2ccc3cc(O)c(O)cc3c2)ccc(C(=O)O)c1O,216 to 218
2,O=C(O)c1ccc(S(=O)(=O)Cc2c(O[C@H](Cn3ccnc3)c3ccccc3)ccc3c2CCCC3=O)cc1,250
3,CC(C)(C)c1cc(CC(S)C(=O)O)cc(C(C)(C)C)c1O (configuration not stated),137 to 140
4,Nc1ccc(Cn2cnc3c(-c4ccco4)ncnc32)cc1,195 to 197
5,COC(=O)C1=C(C(OC)OC)NC(C)=C(C(=O)OC(C)C)C1c1ccccc1[N+](=O)[O-] (configuration not stated),143 to 145
6,COc1cc(C)nc2c(OC)cc(Br)cc12,167 to 168
7,O=C(C(=O)c1cccc(F)c1)c1cccc(F)c1,104 to 105
8,COC(=O)C(C)N(C(=O)CCl)c1c(C)cccc1C (configuration not stated),92 to 94
9,OC(Cn1cncn1)(c1ccc(F)cc1F)C(F)n1cncn1 (configuration not stated),117 to 123
10,O=C1C=C(c2ccc(F)cc2)CN1,190
11,COc1cc2ncnc(Nc3ccc(F)c(Cl)c3)c2cc1OCC1(C)COC1,226 to 227
12,Cc1nc2cc(NC(=O)c3ccco3)ccc2o1,156 to 158
13,Cc1cc(-c2cc3cc(OCCNC[C@H](O)COc4ccccc4Cl)ccc3o2)no1,102 to 106
14,CN(C)CCNC(=O)Cc1ccc(NC(=O)Cc2ccc([N+](=O)[O-])cc2)cc1,160 to 162
15,COc1cc(N)c(Cl)cc1C(=O)NN1CCN(Cc2cccs2)CC1,225 to 226
16,CNC1=NN(c2cccc(Cl)c2)CC1C (configuration not stated),75 to 76
17,Cn1cnc(COc2nc3c(cc2-c2cccc(F)c2)nnn3-c2ccccc2F)n1,202 to 205
18,O=C1CCCC(=O)N1c1ccc([N+](=O)[O-])cc1,207 to 209
19,NC(=NO)c1c(F)ccc(OCc2nc3cc(Cl)ccc3s2)c1F,169 to 170
20,FC(F)(F)c1ccc(-c2cc(Oc3ccc4cc[nH]c4c3)ncn2)cc1,206 to 209
21,CCC1(Cc2ccccc2)C(=O)N(C)C(=Cc2ccccc2C#N)C(=O)N1C (configuration not stated),120
22,Cc1cccc(C(=O)Nc2cn(C3CCCCO3)nc2C(=O)NCC(F)(F)F)n1 (configuration not stated),184 to 185
23,CC(C)(C)OC(=O)NOCC(O)c1ccccc1 (configuration not stated),97 to 99
24,CN(C(=O)OC(C)(C)C)c1cc(Sc2ccc(O)cc2)ccc1N,62 to 67
25,CCCCCCCCn1nc(C)c(N=Nc2c(O)cc(S(=O)(=O)N(CC)CC)c3ccccc23)c1O,122 to 123
26,CC(C)(C)ONC(=O)c1ccc(Cc2ccc(N)cc2)cc1,110 to 118

row,SMILES,melting point [°C]
1,CCn1cc(CN(C(=O)C2CCCc3ccccc32)c2ccc(C(C)C)cc2)cn1 (configuration not stated),75 to 76
2,Cc1c(-c2ccc(O)cc2)sc(C=O)c1-c1ccc(O)c(F)c1,223 to 226
3,Nc1ccc(NC(=S)NC2CCCCC2)cn1,147 to 149
4,COC(=O)/C(C#N)=C/c1ccccc1,90 to 91
5,COc1cc(Cl)cc(CO)c1Cl,58 to 64
6,CCCCC(C(=O)N[C@H]1CN2CCC1CC2)c1ccccc1 (some centres not stated),136
7,COn1cc(C(=O)NCc2ccc(Cl)cc2)c(=O)c2ccccc21,155 to 160
8,CCc1nc(C(=O)NCCc2ccc(S(N)(=O)=O)cc2)no1,159 to 160
9,Cn1ncc(/C=C/C(=O)Nc2ccc(Cc3nc4c(s3)CCCC4)cc2)c1-c1ccc(F)cc1,205 to 206
10,CCN(CC)CC1CCCCN1CCNC(=O)N1c2cccnc2NC(=O)c2c1c(C)nn2C (configuration not stated),138 to 139
11,C[C@H]1[C@@H](C#N)CCN1c1ccc(C#N)c2ccccc12,143 to 145
12,Oc1ncnc2c1c(Nc1cccnc1)nn2Cc1ccccc1,150 to 160
13,CCCCc1nc2c(c(C)c(C)n3nnnc23)n1CC(C)(C)NC(=O)c1ccccc1,201 to 204
14,Nc1nc(-c2ccccn2)cc2ccccc12,152 to 153
15,COc1cc(OC)cc(Oc2nc(N)n3nc(-c4ccco4)nc3n2)c1,248 to 250
16,CCOC(=O)c1sc(N2CCNC2=O)nc1C,197 to 199
17,CCC(C)(C)NC(Nc1cc(OC)cc(OC)c1)=C(C#N)S(=O)(=O)c1ccc(Cl)cc1,189 to 190
18,COc1ccc(-c2cc(C(=O)O)c(=O)n(CCCc3ccc(F)cc3)n2)cc1F,185 to 187
19,COc1ccc(-c2[nH]nc3c2C(=O)c2c(NC(=O)Cc4ccccc4OC)cccc2-3)cc1,255
20,O=C1CC(c2ccc(C3CCCCCC3)cc2)C(=O)O1 (configuration not stated),102 to 104
21,CCSc1ccc2c(c1)CCN2C(=O)Nc1cccnc1,150 to 151
22,O=C1C(c2cccc(-c3ccccc3)c2)n2cncc2CN1Cc1ccccc1 (configuration not stated),232 to 234
23,O=C(CS(=O)Cc1ccc(F)cc1)NO (configuration not stated),176 to 177
24,CC(=O)Oc1cc(-n2c(=O)cc(C(F)(F)F)n(C)c2=O)c(F)cc1Cl,99 to 101

# From a melting point compilation (Tetko et al.; mined from patent text by program, amines drawn as free bases though some values may be those of a salt)
